In US12583858B2 (Genentech, Inc., priority 2015, dated 2026) one finds EC50 data, which are given here for 54 compounds.

One may read the EC50 as the concentration at which the effect is half-maximal.

The target of this experiment is T1, TDO2 (Homo sapiens, UniProt P48775).
T1 construct: decreased levels of NFK in SW48 cells (high TDO expressing cells)
T1 sequence (P48775 whole entry): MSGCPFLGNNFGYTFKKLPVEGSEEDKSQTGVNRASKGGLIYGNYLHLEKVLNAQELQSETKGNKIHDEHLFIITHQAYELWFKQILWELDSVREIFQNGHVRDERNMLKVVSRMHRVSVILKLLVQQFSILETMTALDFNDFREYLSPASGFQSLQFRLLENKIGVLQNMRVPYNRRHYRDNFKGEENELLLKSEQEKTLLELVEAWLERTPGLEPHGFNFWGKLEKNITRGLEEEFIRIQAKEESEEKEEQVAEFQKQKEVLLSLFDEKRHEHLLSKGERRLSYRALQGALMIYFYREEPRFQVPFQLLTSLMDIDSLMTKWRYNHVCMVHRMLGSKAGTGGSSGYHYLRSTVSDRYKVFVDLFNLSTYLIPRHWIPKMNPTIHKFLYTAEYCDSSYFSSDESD
In words: TDO2 cell assay (NFK GreenScreen, SW48 cells). The experiment is classed as cell-based. The following applies: SW48 cells (high TDO expressing), 200 uM tryptophan, 24 hours; Table 3; read-out: TDO2 Cell Fluor EC50.
In the case of `CC(=O)N1CCC(C2c3ccccc3-c3cncn32)C(O)C1` (single isomer, unassigned) [Example 09a, 1-(3-hydroxy-4-(5H-imidazo[5,1-a]isoindol-5-yl)piperidin-1-yl)ethan-1-one], the EC50 was above 25000 nM.

As to `CC(=O)N1CCC(C2c3ccccc3-c3cncn32)C(O)C1` (single isomer, unassigned) [Example 09b, 1-(3-hydroxy-4-(5H-imidazo[5,1-a]isoindol-5-yl)piperidin-1-yl)ethan-1-one], the half-maximal effective concentration (EC50) stood at 3000 nM.

Take `CC(=O)N1CCC(C2c3ccccc3-c3cncn32)C(O)C1` (single isomer, unassigned) [Example 09c, 1-(3-hydroxy-4-(5H-imidazo[5,1-a]isoindol-5-yl)piperidin-1-yl)ethan-1-one]: the EC50 is above 25000 nM.

Regarding `CC(=O)N1CCC(C2c3ccccc3-c3cncn32)C(O)C1` (single isomer, unassigned) [Example 09d, 1-(3-hydroxy-4-(5H-imidazo[5,1-a]isoindol-5-yl)piperidin-1-yl)ethan-1-one], the EC50 was above 25000 nM.

For the compound `CC(C)(C)OC(=O)N1CCC(C2c3ccccc3-c3cncn32)C(O)C1` (single isomer, unassigned) [Example 10a, tert-butyl 3-hydroxy-4-(5H-imidazo[5,1-a]isoindol-5-yl)piperidine-1-carboxylate], the EC50 was 2100 nM.

Regarding `CC(C)(C)OC(=O)N1CCC(C2c3ccccc3-c3cncn32)C(O)C1` (single isomer, unassigned) [Example 10b, tert-butyl 3-hydroxy-4-(5H-imidazo[5,1-a]isoindol-5-yl)piperidine-1-carboxylate], the EC50 is above 25000 nM.

Turning to `CC(C)(C)OC(=O)N1CCC(C2c3ccccc3-c3cncn32)C(O)C1` (single isomer, unassigned) [Example 10c, tert-butyl 3-hydroxy-4-(5H-imidazo[5,1-a]isoindol-5-yl)piperidine-1-carboxylate], the EC50 was 19000 nM.

Regarding `CC(C)(C)OC(=O)N1CCC(C2c3ccccc3-c3cncn32)C(O)C1` (single isomer, unassigned) [Example 10d, tert-butyl 3-hydroxy-4-(5H-imidazo[5,1-a]isoindol-5-yl)piperidine-1-carboxylate], the EC50 was above 25000 nM.

Regarding `CC(C)(C)OC(=O)N1CCC(O)C(C2c3ccccc3-c3cncn32)C1` (single isomer, unassigned) [Example 11c, tert-butyl 4-hydroxy-3-(5H-imidazo[5,1-a]isoindol-5-yl)piperidine-1-carboxylate], the EC50 is above 25000 nM.

With `CC(C)(C)OC(=O)N1CCC(O)C(C2c3ccccc3-c3cncn32)C1` (single isomer, unassigned) [Example 11d, tert-butyl 4-hydroxy-3-(5H-imidazo[5,1-a]isoindol-5-yl)piperidine-1-carboxylate], the EC50 came to 22000 nM.

As for `CC(=O)N1CCC(O)C(C2c3ccccc3-c3cncn32)C1` (single isomer, unassigned) [Example 12a], the EC50 stood at 2700 nM.

Regarding `CC(=O)N1CCC(O)C(C2c3ccccc3-c3cncn32)C1` (single isomer, unassigned) [Example 12b], the half-maximal effective concentration (EC50) is above 25000 nM.

On to `CC(=O)N1CC[C@H](O)[C@@H]([C@H]2c3ccccc3-c3cncn32)C1` (single isomer, unassigned) [Example 12c], for which the EC50 was above 25000 nM.

For `CC(=O)N1CC[C@@H](O)[C@H]([C@@H]2c3ccccc3-c3cncn32)C1` (single isomer, unassigned) [Example 12d], the EC50 is above 25000 nM.

On to `N#CCN1CCC(O)C(C2c3ccccc3-c3cncn32)C1` (single isomer, unassigned) [Example 14a], for which the EC50 stood at 360 nM.

As for `N#CCN1CCC(O)C(C2c3ccccc3-c3cncn32)C1` (single isomer, unassigned) [Example 14b], the EC50 was above 25000 nM.

As for `N#CCN1CCC(O)C(C2c3ccccc3-c3cncn32)C1` (single isomer, unassigned) [Example 14c], the EC50 came out at 20000 nM.

Take `N#CCN1CCC(O)C(C2c3ccccc3-c3cncn32)C1` (single isomer, unassigned) [Example 14d]: the 50% effective concentration (EC50) is above 25000 nM.

For the compound `CCS(=O)(=O)N1CCC(O)C(C2c3ccccc3-c3cncn32)C1` (single isomer, unassigned) [Example 15a], the EC50 was above 25000 nM.

As for `CCS(=O)(=O)N1CCC(O)C(C2c3ccccc3-c3cncn32)C1` (single isomer, unassigned) [Example 15b], the half-maximal effective concentration (EC50) was above 25000 nM.

For `CCS(=O)(=O)N1CCC(O)C(C2c3ccccc3-c3cncn32)C1` (single isomer, unassigned) [Example 15c], the EC50 was found to be 7500 nM.

Consider `CCS(=O)(=O)N1CCC(O)C(C2c3ccccc3-c3cncn32)C1` (single isomer, unassigned) [Example 15d], for which the EC50 is above 25000 nM.

Take `O[C@@H]1CCC(F)(F)C[C@@H]1[C@H]1c2ccccc2-c2cncn21` (single isomer, unassigned) [Example 18b]: the EC50 amounted to 62 nM.

Regarding `OC1CCC(F)(F)CC1C1c2ccccc2-c2cncn21` (single isomer, unassigned) [Example 18c, 4,4-difluoro-2-(5H-imidazo[5,1-a]isoindol-5-yl)cyclohexan-1-ol], the EC50 came out at 320 nM.

Consider `OC1CCC(F)(F)CC1C1c2ccccc2-c2cncn21` (single isomer, unassigned) [Example 18d, 4,4-difluoro-2-(5H-imidazo[5,1-a]isoindol-5-yl)cyclohexan-1-ol], for which the EC50 came out at 8000 nM.

As to `O[C@H]1CCC(F)(F)C[C@H]1[C@@H]1c2ccccc2-c2cncn21` (single isomer, unassigned) [Example 18f], the EC50 stood at 15000 nM.

Turning to `OC1CCC(F)(F)CC1C1c2ccccc2-c2cncn21` (single isomer, unassigned) [Example 18g, 4,4-difluoro-2-(5H-imidazo[5,1-a]isoindol-5-yl)cyclohexan-1-ol], the EC50 was determined as 110 nM.

On to `OC1CCC(F)(F)CC1C1c2ccccc2-c2cncn21` (single isomer, unassigned) [Example 18h, 4,4-difluoro-2-(5H-imidazo[5,1-a]isoindol-5-yl)cyclohexan-1-ol], for which the EC50 came out at 13000 nM.

In the case of `OC1c2ccccc2CC1C1c2ccccc2-c2cncn21` (single isomer, unassigned) [Example 19a], the EC50 is 7400 nM.

As to `OC1c2ccccc2CC1C1c2ccccc2-c2cncn21` (single isomer, unassigned) [Example 19b], the EC50 turned out to be 510 nM.

Take `OC1c2ccccc2CC1C1c2ccccc2-c2cncn21` (single isomer, unassigned) [Example 19c]: the EC50 is 180 nM.

With `OC1c2ccccc2CC1C1c2ccccc2-c2cncn21` (single isomer, unassigned) [Example 19d], the concentration for a half-maximal effect (EC50) is 200 nM.

Regarding `OC1c2ccccc2CC1C1c2ccccc2-c2cncn21` (single isomer, unassigned) [Example 19e], the EC50 was 2000 nM.

Turning to `OC1c2ccccc2CC1C1c2ccccc2-c2cncn21` (single isomer, unassigned) [Example 19f], the EC50 is 4400 nM.

Take `OC1CCCC1C1c2ccc(F)cc2-c2cncn21` (single isomer, unassigned) [Example 20a]: the EC50 is above 25000 nM.

For `OC1CCCC1C1c2ccc(F)cc2-c2cncn21` (single isomer, unassigned) [Example 20b], the EC50 came out at 430 nM.

Regarding `OC1CCCC1C1c2ccc(F)cc2-c2cncn21` (single isomer, unassigned) [Example 20c], the EC50 turned out to be 3600 nM.

In the case of `OC1CCCC1C1c2ccc(F)cc2-c2cncn21` (single isomer, unassigned) [Example 20d], the EC50 stood at 99 nM.

As to `CC1(C)CC(O)C1C1c2ccccc2-c2cncn21` (single isomer, unassigned) [Example 22d], the EC50 was 6900 nM.

With `CC1(C)C[C@@H](O)[C@H]1[C@H]1c2ccccc2-c2cncn21` (single isomer, unassigned) [Example 22f], the EC50 was 1100 nM.

With `CC1(C)C[C@@H](O)[C@H]1[C@H]1c2ccccc2-c2cncn21` (single isomer, unassigned) [Example 22g], the EC50 was determined as 780 nM.

With `CC1(C)CC(O)C1C1c2ccccc2-c2cncn21` (single isomer, unassigned) [Example 22h], the EC50 came out at 400 nM.

As for `CC1(C)CCC(C2c3ccccc3-c3cncn32)C1O` (single isomer, unassigned) [Example 23a], the EC50 was above 25000 nM.

As to `CC1(C)CCC(C2c3ccccc3-c3cncn32)C1O` (single isomer, unassigned) [Example 23b], the EC50 came out at 85 nM.

Regarding `CC1(C)CCC(C2c3ccccc3-c3cncn32)C1O` (single isomer, unassigned) [Example 23c], the EC50 is 81 nM.

For `CC1(C)CCC(C2c3ccccc3-c3cncn32)C1O` (single isomer, unassigned) [Example 23d], the EC50 was found to be 110 nM.

Consider `CC1(C)CCC(C2c3ccccc3-c3cncn32)C1O` (single isomer, unassigned) [Example 23e], for which the EC50 was determined as 17000 nM.

For `CC1(C)CCC(C2c3ccccc3-c3cncn32)C1O` (single isomer, unassigned) [Example 23f], the EC50 turned out to be 2700 nM.

On to `CC1(C)CCCC(C2c3ccccc3-c3cncn32)C1O` (single isomer, unassigned) [Example 24a], for which the EC50 turned out to be 57 nM.

On to `CC1(C)CCCC(C2c3ccccc3-c3cncn32)C1O` (single isomer, unassigned) [Example 24b], for which the 50% effective concentration (EC50) turned out to be 8700 nM.

Take `CC1(C)CCCC(C2c3ccccc3-c3cncn32)C1O` (single isomer, unassigned) [Example 24c]: the half-maximal effective concentration (EC50) stood at 5500 nM.

Regarding `CC1(C)CCCC(C2c3ccccc3-c3cncn32)C1O` (single isomer, unassigned) [Example 24d], the 50% effective concentration (EC50) is 1100 nM.

Consider `CC1(C)CCCC(C2c3ccccc3-c3cncn32)C1O` (single isomer, unassigned) [Example 24e], for which the EC50 stood at 130 nM.

In the case of `CC1(C)CCCC(C2c3ccccc3-c3cncn32)C1O` (single isomer, unassigned) [Example 24g], the 50% effective concentration (EC50) was found to be 340 nM.
